Laboratory results: patent US20080040819A1, “Methods of identifying agents for treatment of schizophrenia and related disorders” (Wyeth, priority 2006, published 2008)
Like-named read-outs stand apart in the source and are kept apart here.

What was measured:
[1] = system: GPR88 KO and WT mice; assay: Phencyclidine-stimulated locomotor hyperactivity; assay type: in vivo
[2] = biological target: T1, striatal dopamine D2 receptors (Mus musculus, UniProt P61168); assay: [^3H]spiperone binding to striatal membrane preparations; design: species or system mice; settings: pool of 10
T1 construct: from tissue; host or cells: mouse striatum (membrane preparation / homogenate)
T1 sequence (P61168 whole entry): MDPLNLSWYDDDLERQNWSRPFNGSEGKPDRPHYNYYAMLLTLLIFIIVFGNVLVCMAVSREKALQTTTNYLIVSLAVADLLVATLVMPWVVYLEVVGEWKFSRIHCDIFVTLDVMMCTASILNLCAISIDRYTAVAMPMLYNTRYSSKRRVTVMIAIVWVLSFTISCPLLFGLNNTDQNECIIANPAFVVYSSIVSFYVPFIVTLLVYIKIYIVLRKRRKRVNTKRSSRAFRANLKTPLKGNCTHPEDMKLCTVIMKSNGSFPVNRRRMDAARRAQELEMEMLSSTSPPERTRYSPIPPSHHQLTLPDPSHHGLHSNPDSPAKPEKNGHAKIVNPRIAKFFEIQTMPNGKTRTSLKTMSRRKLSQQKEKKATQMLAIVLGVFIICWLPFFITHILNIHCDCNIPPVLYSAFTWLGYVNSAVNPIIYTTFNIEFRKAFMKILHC
Protocol: Striata from 10 mice (male and female, WT & GPR88 KO) were pooled and homogenized in a motor-driven POLYTRON™ homogenizer (Kinematica AG, Newark, N.J.) at setting six for 10 seconds in 3 mL per 100 mg of wet tissue in 50 mM Tris-HCl buffer, pH 7.4, containing 120 mM NaCl, 5 mM KCl, 1.5 mM CaCl2, 4 mM MgCl2, and 1 mM EDTA. […] The binding of each concentration of radioligand was determined in duplicate. Incubations were carried out at room temperature for 120 minutes. The final concentration of the membrane protein in each binding assay was approximately 70 μg/ml. Butaclamol (+), (10 μM), (Sigma-Aldrich, St. Louis, Mo.) was used to define the nonspecific binding. The incubations were terminated by rapid filtration using a Wallac Tomtec harvester (Waltham, Mass.) and buffer-presoaked glass fiber filter mats (GF/B, Whatman Inc. Florham Park, N.J.). […] The radioactivity of the filters was then counted in a Wallac 1205 scintillation counter (Perkin Elmer Life and Analytical Sciences).
The estimates of Bmax (the number of available binding receptors) and Kd (the dissociation constant) were calculated by fitting the specific binding data with nonlinear regression using GraphPad PRISM™ data analysis software (GraphPad Software, San Diego, Calif.).

[3] = system: GPR88 KO and WT mice; assay: Amphetamine-stimulated locomotor hyperactivity; assay type: in vivo; settings: 3 mg/kg i.p., 40-90 min
Protocol: The amphetamine-stimulated locomotor hyperactivity assay is another type of assay to model the neuropathological states in schizophrenia, similar to the hyperdopaminergia in the ventral striatum. To measure spontaneous activity and amphetamine-stimulated locomotor hyperactivity, the mice were individually placed in Opto-Veramax-3 monitor cages (Columbus Instruments, Columbus, Ohio) and allowed to habituate for 30 minutes with room light and white noise on. After habituation, each mouse was injected with amphetamine (AMPH, 3 mg/kg) in the intraperitoneum. During the first 30 minutes, the spontaneous activity was recorded every 10 minutes. After amphetamine administration, amphetamine-stimulated locomotor hyperactivity was measured every 10 minutes over a 60 minutes time span by the activity monitor. Accuscan Versamax and Versadat software (Columbus Instruments, Columbus, Ohio) were used to convert the infrared beam breaks into horizontal activity counts. […] Males and females were analyzed separately.

[4] = system: striatal dopamine; assay: In vivo striatal microdialysis; settings: 3 mg/kg i.p., male and female GPR88 KO and WT mice, dialysates for 3 hours
Protocol: Chromatographic separations were performed using a Capcell PAK™, Strong Cation Exchange columns (5 μm UG80, 1.5×150 mm; Shiseido, Phenomenex, USA). The mobile phase comprised (mM) 13 Na2HPO4, 87 NaH2PO4, 0.1 EDTA and 20% methanol, was adjusted to pH 6 and delivered at 0.2 ml/minutes at 40° C.

[5] = system: GPR88 KO and WT mice; assay: Apomorphine-induced climbing and stereotypy; assay type: in vivo
Protocol: The GPR88 KO and WT mice were acclimated to a wire cage (cylindrical ½″×½″ mesh with the dimensions of 4½″ d×5½″ h) for at least 2 hours before testing to allow proper habituation. […] (+ present, − absent). Readings were repeated every 5 minutes during a 30-minute test session.
The behavioral assessment was conducted over three conditions in succession: (1) an evaluation of the response to a subcutaneous vehicle (0.25% TWEEN® 80) injection to establish a baseline; (2) followed by an evaluation of the response to a dose of 0.3 mg/kg subcutaneous apomorphine injection; (3) followed by an evaluation of the response to 1 mg/kg subcutaneous apomorphine injection. Behavioral observation began 5 minutes after each injection. Vehicle was given at T0 minutes with observational assessment from T5-T35 minutes and habituation followed from T35-T65 minutes.
At T65, the 0.3 mg/kg dose of apomorphine was administered. Behavioral observation for the 0.3 mg/kg dose of apomorphine was from T70-T100, followed by another habituation from T100-T130 minutes.
At T130 min, the 1.0 mg/kg dose of apomorphine was administered and then the mice were scored from T135-T165 min. For each subject, the climbing scores were totaled for each observational period (maximum=12 per animal). Stereotypy scores were also summed up (maximum=6 per animal). […] Males and females were analyzed separately.

[6] = biological target: dopamine D2 receptors (Mus musculus, UniProt P61168); settings: 1 mM dopamine, striatal membranes
dopamine D2 receptors, sequence (P61168 whole entry): as above
Protocol: Briefly, striata were collected from the mice (9 GPR88 KO or WT) and frozen at 80° C. until use. The tissue was homogenized in 1:100 volume (wet weight/volume) of ice-cold K-HEPES buffer (20 mM, pH=7.6), containing 7 mM of MgCl2, 100 mM of NaCl, 1 mM of EDTA, and 1 mM of DTT (buffer A), and centrifuged at 45,000 g for 10 minutes at 4° C. The membrane pellet was resuspended in 100 volumes (w/v) of fresh buffer A and re-centrifuged under the same conditions.
The incubation was started by addition of [^35S]GTPγS (final concentration 0.5 nM) and proceeded for 90 minutes at 30° C. The assay was terminated by filtration through a filter plate (GF/B, Perkin Elmer Life and Analytical Sciences) with five washings of cold buffer A (350 μl). The filter plate was air-dried and the radioactivity content of the filters was counted in 25 μl scintillation cocktail MICROSCINT™ 20 (Perkin Elmer Life and Analytical Sciences) by a Perkin Elmer TopCount NXT scintillation counter.

[7] = system: GPR88 KO and WT mice; assay: Antipsychotic block of apomorphine-induced climbing and stereotypy; assay type: in vivo
Protocol: Observation and scoring for climbing and stereotypy were performed as described in Example 6. […] Males and females were analyzed separately. […] For graphical representation, the data was normalized to the amount of climbing and stereotypy shown by the vehicle treated control group.

[8] = system: GPR88 KO and WT mice; assay: Haloperidol-induced catalepsy; assay type: in vivo; settings: 1 mg/kg i.p., 30-120 minutes, male and female mice
Protocol: Maintenance of this position was considered catalepsy. […] Males and females were analyzed separately.

[9] = system: GPR88 KO and WT mice; settings: 0.54 mg/kg i.p. 30 minutes before testing, PPI averaged across 3 dB levels
Protocol: To detect potential phenotypic deficits in the GPR88 knockout mice, they were first evaluated for startle habituation. In brief, mice were tested using the SR-LAB (San Diego Instruments, San Diego, Calif.) system. Each system consists of a ventilated sound attenuated chamber containing a stabilimeter consisting of a Plexiglas cylinder (12.5 cm length, 3.5 cm diameter) mounted on a Plexiglas frame. Acoustic stimuli were delivered through a speaker mounted in the enclosure ceiling, that was 27 cm above the cylinder. Startle responses were transduced by a piezoelectric accelerometer mounted beneath the frame. Output signals were digitized and rectified as consecutive 1-millisecond (msec) readings (a total of 65 were recorded, and startle response was expressed as an averaged response across these samples) on a computer using the San Diego Instrument software. Mice were placed individually in the chamber for a 5-minute acclimation period at a background noise level of 64 dB.
Prepulse inhibition was measured immediately following the startle sensitivity test. […] Percentage prepulse inhibition was calculated as 100 minus the ratio of the average startle response observed at each prepulse+pulse trial relative to the pulse alone stimulus, times 100. The percentage prepulse at across dB levels was analyzed by repeated-measures ANOVA. […] Males and females were analyzed separately. […]

[10] = GPR88 KO and WT female mice, 0.3 mg/kg haloperidol
[11] = male WT mice, 0.54 and 1.0 mg/kg haloperidol

c1ccc(C2(N3CCCCC3)CCCCC2)cc1 [PCP, phencyclidine]
PCP-stimulated locomotor activity ([1]; female WT and GPR88 KO mice, 1.0 mg/kg): Neither of the genotypes responded | PCP-stimulated locomotor activity ([1]; female WT and GPR88 KO mice, 1.7 mg/kg or 3.0 mg/kg): increased locomotor activity | PCP-stimulated locomotor activity ([1]; male WT and GPR88 KO mice, highest dose 3 mg/kg i.p.): increased locomotor activity | PCP-stimulated locomotor activity ([1]; male WT and GPR88 KO mice, lower doses (1.0, 1.7 mg/kg)): Neither of the genotypes responded

O=C(CCCN1CCC2(CC1)C(=O)NCN2c1ccccc1)c1ccc(F)cc1 [[^3H]spiperone]
Bmax (number of available binding receptors) ([2]; striatal membranes of GPR88 KO mice): 1.83 pmol/mg | Bmax (number of available binding receptors) ([2]; striatal membranes of WT mice): 1.34 pmoles/mg protein

CC(N)Cc1ccccc1 (centres unmarked) [amphetamine]
locomotor activity after amphetamine administration ([3]; GPR88 KO male mice): significant increase in activity | locomotor activity after amphetamine administration ([3]; female mice): significant increase in activity | striatal extracellular dopamine after amphetamine [4]: significant and equal increase in dopamine

CN1CCc2cccc3c2[C@H]1Cc1ccc(O)c(O)c1-3 [apomorphine]
apomorphine-induced climbing scores, dose effect ([5]; female GPR88 KO and WT mice, 1 mg/kg s.c.): the most climbing | apomorphine-induced stereotypy scores, dose effect ([5]; male GPR88 KO and WT mice, 1 mg/kg s.c.): maximal stereotypy | apomorphine-induced climbing scores, dose effect ([5]; male GPR88 KO and WT mice, vehicle, 0.3 and 1 mg/kg s.c.): climbing increasing with the dose

NCCc1ccc(O)c(O)c1 [dopamine]
stimulation of [^35S]GTPγS binding in GPR88 KO mice relative to WT mice [6]: twice

O=C(CCCN1CCC(O)(c2ccc(Cl)cc2)CC1)c1ccc(F)cc1 [haloperidol]
block of apomorphine-induced climbing [7, 10]: full block of climbing | block of apomorphine-induced stereotypy [7, 10]: full block of stereotypy | minimal effective dose, apomorphine-induced climbing and stereotypy assay (summary) ([7]; GPR88 KO male mice): 0.54 mg/kg | minimal effective dose, apomorphine-induced climbing and stereotypy assay (summary) ([7]; WT male mice): < 0.3 mg/kg | block of apomorphine-induced climbing ([7]; male GPR88 KO mice, 1.0 mg/kg haloperidol): full block of climbing | block of apomorphine-induced climbing [7, 11]: full block of climbing | block of apomorphine-induced stereotypy [7, 11]: full block of stereotypy | catalepsy (percentage of maximum possible catalepsy), GPR88 KO versus WT [8]: equivalent levels of catalepsy

Cc1nc2n(c(=O)c1CCN1CCC(c3noc4cc(F)ccc34)CC1)CCCC2 [risperidone]
percentage prepulse inhibition (PPI), treatment versus vehicle ([9]; male GPR88 KO mice): increasing PPI over untreated | percentage prepulse inhibition (PPI), treatment versus vehicle ([9]; male WT mice): increasing PPI over untreated
